In patent US12049483B2, “Selective and noncovalent inhibitors of oncogenic RAS mutants” (New York University, priority 2020, dated 2024):
Peptide text beside a SMILES is read from it. * marks the point of attachment. Cbz = O=C(OCc1ccccc1)*

Legend:
KRAS(G12C) [1] = biological target: T1, KRAS(G12C) (Homo sapiens, UniProt P01116, G12C); assay: Degradation of KRAS in RASless MEFs by VHL-monobody fusions; type: cell-based, mouse; set-up: expressed in transfected cells; host or cells: RASless mouse embryonic fibroblasts; details: MLN4924 1 μM or MG132 5 μM for 24 hours
Protocol: (§1) Monobody development. General procedures for the development of monobodies against purified protein targets have been described previously. After four rounds of phage display library selection using biotinylated KRAS(G12C) at concentrations of 100 nM, 100 nM, 50 nM and 50 nM, the genes encoding monobodies from the enriched phage pool were transferred to a yeast display vector, which was used to construct yeast-display libraries. The yeast display libraries were sorted using a Bio-Rad S3e fluorescence-activated cell sorter or a […] II cell sorter (BD Biosciences). […] Single clones were then screened for selective binding to RAS mutants. The expression of monobodies on the surface of yeast cells were detected using mouse anti-VS and anti-mouse IgG-FITC conjugate. Target binding was detected with neutravidin Dylight650. Yeast cells were analyzed using an iQue flow cytometer (Sartorius). […]
Cell signaling assay and quantification of immunoblots. […] The supernatant was collected and measured for total protein amount using BCA assay (Thermo Scientific; 23227). […] The proteins were then transferred from the gel to a low fluorescence background PVDF membrane (Millipore; IPFL00010) or regular PVDF membrane (Millipore; ISEQ00010) depending on whether fluorescence or chemiluminescence detection was performed. […] The total RAS level was detected using a pan-RAS antibody (SCBT, sc-166691). […]
Target sequence in this assay (P01116 1-188 isoform P01116-2 G12C): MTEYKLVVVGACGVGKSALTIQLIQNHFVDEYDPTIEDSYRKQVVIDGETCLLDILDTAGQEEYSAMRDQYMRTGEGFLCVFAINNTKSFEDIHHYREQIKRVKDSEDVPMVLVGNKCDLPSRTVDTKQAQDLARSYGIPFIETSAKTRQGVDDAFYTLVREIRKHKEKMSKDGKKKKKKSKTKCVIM

ERK activation (pERK) = assay: ERK activation in dox-inducible monobody-expressing cell lines; type: cell-based; details: H358; after 24 and 48 hours; dox-induced expression or ARS1620 treatment
Protocol: Cell signaling assay and quantification of immunoblots. Cells were lysed in RIPA buffer (50 mM Tris-Cl pH 8, 150 mM NaCl, 5 mM EDTA pH8, 0.1% SDS, 1% NP40) supplemented with protease inhibitors (Roche; 5892991001) and phosphatase inhibitors (54 mM β-glycerophosphate, 10 mM NaF, 1 mM sodium vanadate) for 15 minutes on ice, and centrifuged at 15,000 g for 15 minutes. The supernatant was collected and measured for total protein amount using BCA assay (Thermo Scientific; 23227). Lysate (7-20 μg per well) was loaded onto a pre-cast SDS gel (BioRad; 456-1096) followed by electrophoresis. The proteins were then transferred from the gel to a low fluorescence background PVDF membrane (Millipore; IPFL00010) or regular PVDF membrane (Millipore; ISEQ00010) depending on whether fluorescence or chemiluminescence detection was performed. Phospho-ERK was detected using a rabbit anti-pERK antibody (Cell Signaling; 9101S) and total ERK was detected using a rabbit anti-ERK antibody (Cell Signaling; 9102S). Monobody expression was detected using mouse anti-Flag antibody (Sigma; F3165) or anti-HA tag antibody (BioLegend; 901516). Loading control was detected with primary antibody against tubulin-alpha (Thermo Scientific, 62204) or against cytochrome oxidase (COX IV) (Li-Cor, 926-42214). The total RAS level was detected using a pan-RAS antibody (SCBT, sc-166691). The KRAS level was determined using a KRAS-specific antibody (Sigma, WH0003845M1). For fluorescence detection of immunoblots, the membranes were imaged with a Licor Odyssey Clx imager (Li-Cor Bioscience) using IRDye anti-Rabbit 800CW and anti-Mouse 680LT (Li-Cor Bioscience, 926-32211 and 926-68020, respectively) as secondary antibodies. […] Band intensities of western blot were analyzed with Image Studio Lite version 5.2 (Li-Cor Bioscience). To quantify protein abundance in the degradation experiment, the intensities of pERK, RAS, KRAS, and Flag/HA tag bands were first normalized against the loading control of the perspective blot, which were either tubulin-α, COX IV or total ERK, followed by subsequent normalization to the zero time point. […]

KRAS(G12C) [2] = biological target: T1, KRAS(G12C); assay: Yeast display binding titration, KRAS(G12C); set-up: KRAS4B residues 1-174 containing G12C, G12V, G12D, G13D, Q61L, WT; His6 (N, cleaved yes); Avi-tag (N, cleaved yes); made in house; host or cells: E. coli BL21(DE3); details: ARS1620 added during nucleotide exchange
Protocol: Nucleotide exchange of RAS. Purified RAS proteins used in binding experiment and crystallization were prepared by diluting stock protein (typically containing 20-250 μM RAS) 25 times with 20 mM Tris-Cl buffer pH 7.5 containing 5 mM EDTA, 0.1 mM DTT and 1 mM final concentration of a nucleotide (GDP or GTPγS). Samples were incubated at 30° C. for 30 minutes. MgCl2 was then added to the sample at a final concentration of 20 mM and the solution was further incubated on ice for at least 5 minutes prior to use.
as §1
Target sequence in this assay (P01116 1-174 isoform P01116-2 G12C): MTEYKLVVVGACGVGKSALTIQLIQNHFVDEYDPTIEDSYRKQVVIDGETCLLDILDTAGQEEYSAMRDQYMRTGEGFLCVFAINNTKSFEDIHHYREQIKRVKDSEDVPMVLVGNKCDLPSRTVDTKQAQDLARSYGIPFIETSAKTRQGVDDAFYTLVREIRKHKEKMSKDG

## NS(=O)(=O)OC[C@@H]1C[C@@H](n2ccc3c(N[C@H]4CCc5ccccc54)ncnc32)C[C@@H]1O [MLN4924]
KRAS(G12C) [1]
  effect on RAS degradation by VHL-monobody fusion: rescued

## C=CC(=O)N1CCN(c2ncnc3c(F)c(-c4c(O)cccc4F)c(Cl)cc23)CC1 [ARS1620]
ERK activation (pERK)
  ERK activation in H358 cells: effectively inhibited
KRAS(G12C) [2]
  binding of 12VC1 to KRAS(G12C) after reaction with ARS1620: abolished

## CC(C)C[C@@H](C=O)NC(=O)[C@H](CC(C)C)NC(=O)[C@H](CC(C)C)NC(=O)OCc1ccccc1 [MG132] (Cbz-Leu-Leu-Leu-aldehyde)
KRAS(G12C) [1]
  effect on RAS degradation by VHL-monobody fusion: rescued
